According to PubChem BioAssay (NCI):
Values joined by “and” are separate entries in the source; they are usually repeats but may differ in a detail not shown here. Identical values can stand only once.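 1) Cells in 96-well plates. 2) Compound, 48 h, 5 concentrations. 3) Linear interpolation between surrounding doses. 4) Unreached endpoint = highest concentration. At the GI50, growth is halved. TGI: concentration producing complete growth inhibition.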

Legend:
Experiment in all cases: inhibition of tumour cell growth, NCI panel, 48 h
CAKI-1 renal = system: CAKI-1 renal
OVCAR-4 ovarian = system: OVCAR-4 ovarian
MDA-MB-231 breast = system: MDA-MB-231 breast
786-0 renal = system: 786-0 renal
SF-295 CNS = system: SF-295 CNS
MOLT-4 leukemia = system: MOLT-4 leukemia
MCF7 breast = system: MCF7 breast
SR leukemia = system: SR leukemia
SNB-75 CNS = system: SNB-75 CNS
HT29 colon = system: HT29 colon

SMILES	GI50 (CAKI-1 renal)	TGI (CAKI-1 renal)	GI50 (OVCAR-4 ovarian)	TGI (OVCAR-4 ovarian)	GI50 (MDA-MB-231 breast)	TGI (MDA-MB-231 breast)	GI50 (786-0 renal)	TGI (786-0 renal)	GI50 (SF-295 CNS)	TGI (SF-295 CNS)	GI50 (MOLT-4 leukemia)	TGI (MOLT-4 leukemia)	GI50 (MCF7 breast)	TGI (MCF7 breast)	GI50 (SR leukemia)	TGI (SR leukemia)	GI50 (SNB-75 CNS)	TGI (SNB-75 CNS)	GI50 (HT29 colon)	TGI (HT29 colon)
O=S1(=O)CC(Br)C(Br)C1 (centres undefined)	3.12 µM	11.8 µM	3.11 µM	18.4 µM	3.15 µM	10.3 µM	10.5 µM	25.5 µM	24.5 µM	> 100 µM	3.27 µM	16.2 µM	2.72 µM	11.7 µM	3.58 µM	21.6 µM	5.25 µM	19.1 µM	3.71 µM	11.3 µM
CC(C)(O)CCC(O)C(C)(O)C1CCC2(O)C3=CC(=O)C4(O)CC(O)C(O)CC4(C)C3CCC12C (centres undefined) (tested in a mixture with another compound)	–	> 100 µM	–	> 100 µM	–	> 100 µM	–	> 100 µM	–	> 100 µM	–	> 100 µM	–	> 100 µM	–	> 100 µM	–	> 100 µM	–	> 100 µM
CC(C)(F)C[C@H](N[C@@H](c1ccc(-c2ccc(S(C)(=O)=O)cc2)cc1)C(F)(F)F)C(=O)NC1(C#N)CC1	18.7 µM and 27.4 µM	55 µM and > 100 µM	9.47 µM and 19.5 µM	42.8 µM and 47.4 µM	18.6 µM and 34.4 µM	55 µM and > 100 µM	9.02 µM and 26.2 µM	55 µM and 87.8 µM	18.8 µM and 17.9 µM	55 µM and 50.9 µM	> 100 µM	> 100 µM	35 µM and > 100 µM	55 µM and > 100 µM	93.1 µM	> 100 µM	7.51 µM and 16.4 µM	29.8 µM and 39.4 µM	> 100 µM	> 100 µM
S=c1[nH]nc(SCc2ccccc2Cl)c2[nH]cnc12	–	> 100 µM	–	> 100 µM	–	> 100 µM	–	> 100 µM	–	> 100 µM	–	> 100 µM	–	> 100 µM	–	> 100 µM	–	> 100 µM	–	> 100 µM
O=C(O)c1ccc2cccnc2c1O	2.16 µM	13.8 µM	0.411 µM	> 100 µM	–	> 100 µM	2.4 µM	24.8 µM	0.0521 µM	0.474 µM	1.82 µM	> 70.3 µM	1.5 µM	> 100 µM	2.23 µM	> 100 µM	1.51 µM	> 100 µM	2.43 µM	> 79 µM
Cn1c(O)c(N=NC(N)=S)c2ccccc21	23.6 µM	91.7 µM	82.1 µM	> 100 µM	> 100 µM	> 100 µM	58.7 µM	> 100 µM	27.1 µM	> 100 µM	> 100 µM	> 100 µM	20.3 µM	> 100 µM	90.1 µM	> 100 µM	18.3 µM	98 µM	> 100 µM	> 100 µM
Cc1[nH]n(-c2ccccc2)c(=O)c1C(=O)c1ccccc1	> 25 µM	> 25 µM	> 25 µM	> 25 µM	> 25 µM	> 25 µM	> 25 µM	> 25 µM	> 25 µM	> 25 µM	> 25 µM	> 25 µM	> 25 µM	> 25 µM	> 21 µM	> 25 µM	> 25 µM	> 25 µM	> 25 µM	> 25 µM
COc1cc(/C=C/c2cc(/C=C/c3ccc(O)c(OC)c3)[nH]c(=O)n2)ccc1O	3.38 µM	> 100 µM	2.46 µM	16.8 µM	3.59 µM	> 100 µM	2.73 µM	33 µM	2.75 µM	9.87 µM	2.55 µM	11.7 µM	2.96 µM	11.4 µM	1.91 µM	6.18 µM	1.72 µM	12 µM	1.3 µM	2.67 µM
O=c1[nH]cnc2nc(-c3ccc(N(CCCl)CCCl)cc3)[nH]c12	4.25 µM	> 100 µM	20.1 µM	> 100 µM	3.23 µM	> 100 µM	18.3 µM	53.2 µM	1.57 µM	6.5 µM	> 100 µM	> 100 µM	> 100 µM	> 100 µM	> 100 µM	> 100 µM	18.1 µM	74.2 µM	> 100 µM	> 100 µM
COc1cccc2ccc3c(c12)C(=O)OC31CCc2c(C)cccc21 (centres undefined)	–	> 46.4 µM	–	> 46.4 µM	–	> 100 µM	–	> 46.4 µM	–	> 46.4 µM	–	33.7 µM	–	41.9 µM	–	18.4 µM	–	45.1 µM	–	> 31.6 µM
N#Cc1ncc(N2C(=O)C3(CCC3)N(c3ccc(OC4CCNCC4)nc3)C2=S)cc1C(F)(F)F	14 µM	28.9 µM	18.2 µM	44.4 µM	16.4 µM	33.6 µM	13.6 µM	26.8 µM	16.1 µM	31.5 µM	13.1 µM	42 µM	11.5 µM	26.4 µM	3.37 µM	21.1 µM	15.4 µM	50.1 µM	8.92 µM	29.9 µM
COc1ccc(S(=O)(=O)n2c3ccccc3n3ncc(-c4nnc(C)o4)c23)cc1	0.449 µM	> 100 µM	12.7 µM	> 100 µM	1.86 µM	39.6 µM	0.688 µM	> 71.3 µM	0.37 µM	14.4 µM	0.502 µM	> 100 µM	0.397 µM	> 69.8 µM	0.77 µM	> 100 µM	0.211 µM	0.937 µM	0.381 µM	> 100 µM
CCN(CC)CCOc1nc2cc(OC)c(OC)cc2c2c1-c1ccc(OC)cc1C2=O	10.3 µM	22.5 µM	13.9 µM	33.5 µM	13 µM	26.9 µM	15.7 µM	30.3 µM	0.117 µM	0.597 µM	1.91 µM	17.6 µM	0.697 µM	17.3 µM	0.583 µM	3.4 µM	16.8 µM	33.1 µM	1.67 µM	3.11 µM
Cc1nn2c(/C=C3\C(=O)Nc4ccccc43)c(C)nc2s1	> 100 µM	> 100 µM	> 100 µM	> 100 µM	> 100 µM	> 100 µM	40.4 µM	> 100 µM	29.1 µM	> 100 µM	17.5 µM	> 100 µM	7.46 µM	> 100 µM	4.86 µM	> 100 µM	53.7 µM	> 100 µM	5.32 µM	> 100 µM
N#Cc1ccc2c(c1)C(=O)c1c-2n(CCCN=[N+]=[N-])c(=O)c2cc([N+](=O)[O-])ccc12	9.86 µM	> 50 µM	> 50 µM	> 50 µM	> 50 µM	> 50 µM	23 µM	> 50 µM	8 µM	> 50 µM	1.8 µM	9 µM	1.35 µM	> 50 µM	0.373 µM	4.82 µM	17.4 µM	> 50 µM	32.1 µM	> 50 µM
COc1ccc(/C=C/c2cnc3ccccc3n2)cc1OC	–	> 100 µM	–	> 100 µM	–	> 100 µM	–	> 100 µM	–	> 100 µM	–	> 100 µM	–	> 100 µM	–	> 100 µM	–	> 100 µM	–	> 100 µM
Cc1cc(S(=O)(=O)Nc2nc3cc(-c4ccsc4)sc3c(=O)n2N)c(S)cc1Cl	> 100 µM	> 100 µM	69.6 µM	> 100 µM	15.7 µM	> 100 µM	90.9 µM	> 100 µM	29.7 µM	> 100 µM	68 µM	> 100 µM	46.9 µM	> 100 µM	> 100 µM	> 100 µM	> 100 µM	> 100 µM	30.4 µM	> 100 µM
